The numbers were not newly measured in paper PMC11187573, “Identification of SARS-CoV-2 Mpro inhibitors through deep reinforcement learning for de novo drug design and computational chemistry approaches” (RSC Medicinal Chemistry, 2024), which cites them from elsewhere.

In general, IC50 refers to the concentration that inhibits the measured activity by half.

In this data set the test system is Mpro. To be noted: ML dataset, cited from earlier work.
[1] abbreviates: Origin COVID_Moonshot, ref COVID Moonshot.

Read-outs that look alike come from different tables or passages of the source.

Turning to `Cc1ccc(-n2sc(=O)n(Cc3ccc(F)cc3)c2=O)cc1` [CHEMBL1917204, Cc(cc1)ccc1N(C(N1Cc(cc2)ccc2F)=O)SC1=O, reference compound], the IC50 (Origin ChEMBL, ref ChEMBL) was 0.19 µM.

For `COc1ccc(N(Cc2cccc(Cl)c2)C(=O)Cn2nnc3ccccc32)cc1` [CHO-MSK-00c5269a-2], the IC50 under setting [1] is 3.4 µM.

`O=C(Cn1nnc2ccccc21)N(Cc1cccc(Cl)c1)c1ccc(N2CCCCC2)cc1` [CHO-MSK-00c5269a-5]: under setting [1], the IC50 is 4.83 µM.

Turning to `Cc1ccncc1NC(=O)Cc1cc(Cl)cc(OCc2nnc(C3CCCCC3)o2)c1` [CHO-MSK-6e55470f-7], the IC50 under setting [1] was 17 µM.

In the case of `O=C(Nc1cnccc1Cl)c1cc(Cl)ccc1O` [CHR-SOS-7098f804-10], the IC50 under setting [1] is 24.2 µM.

For the compound `O=C(Nc1cccnc1)c1cc(Cl)ccc1-c1ccccc1` [CHR-SOS-7098f804-14], the IC50 under setting [1] was 39.1 µM.

Consider `N#Cc1cccc(NC(=O)Nc2cncc(N)c2)c1` [DAR-DIA-23aa0b97-8], for which, under setting [1], the IC50 was 54.3 µM.

Take `N#Cc1cccc(NC(=O)Nc2c[nH]c3ncccc23)c1` [DAR-DIA-23aa0b97-11]: the IC50 under setting [1] was 63.6 µM.

`CC(=O)NC(C)c1cc(F)cc(Cl)c1` (stereo not shown) [DAV-CRI-3edb475e-6, Mpro-x10172]: the IC50 under setting [1] was 24.4 µM.

In the case of `Cc1ccncc1NC(=O)N(Cc1ccccc1)c1cccc(Cl)c1` [EDG-MED-0da5ad92-20], the IC50 under setting [1] was 22.9 µM.

Consider `O=C(Nc1cncc2[nH]c(=O)[nH]c12)C1CCOc2ccc(Cl)cc21` (stereo not shown) [EDG-MED-0e5afe9d-2], for which the IC50 under setting [1] was 62.8 µM.

Consider `NS(=O)(=O)c1[nH]ncc1C(=O)NC[C@@]1(C(=O)Nc2cncc3ccccc23)CCOc2ccc(Cl)cc21` [EDJ-MED-4c7486ba-8], for which the IC50 under setting [1] is 1.99 µM.

Take `COCC1(C(=O)Nc2cncc3ccccc23)CCOc2cc(Cl)c(Cl)cc21` (stereo not shown) [EDJ-MED-37aac4bd-2]: the IC50 under setting [1] was 4.04 µM.

As to `O=C(Cc1cccc(Cl)c1)Nc1cncc2c1OCCC2` [EDJ-MED-976da9a6-1], under setting [1], the 50% inhibitory concentration (IC50) is 10.9 µM.

Regarding `Cc1ccncc1N1CCC(c2cccc(Cl)c2)S1(=O)=O` (stereo not shown) [EDJ-MED-49816e9b-4], the IC50 under setting [1] was 76.6 µM.

Take `Cc1cc(C(F)(F)F)nc2n[nH]c(NC(=O)Cc3cccc(Cl)c3)c12` [EDJ-MED-c8e7a002-5]: the IC50 under setting [1] is 90.7 µM.

As for `O=C(Cc1cccc(Cl)c1)Nc1n[nH]c2ccc(F)cc12` [EDJ-MED-c8e7a002-9], under setting [1], the IC50 was 94 µM.

Consider `O=C(Cc1cccc(Cl)c1)Nc1[nH]nc2cccc(F)c12` [EDJ-MED-c8e7a002-13], for which, under setting [1], the IC50 was 90.6 µM.

For the compound `C[C@H]1C[C@@H](C(=O)Nc2cncc3ccccc23)c2cc(Cl)ccc2O1` [EDJ-MED-e4b030d8-3], under setting [1], the IC50 is 32.7 µM.

In the case of `Cc1c(Cl)ccc2c1[C@H](C(=O)Nc1cncc3ccccc13)CCO2` [EDJ-MED-e4b030d8-8], the IC50 under setting [1] was 3.67 µM.

Consider `Cc1ccncc1N1CCC(c2cccc(Cl)c2)C1=O` (stereo not shown) [EDJ-MED-e66f2cc5-1], for which, under setting [1], the IC50 was 28.8 µM.

As for `O=C(c1cc(=O)[nH]c2ccccc12)N1CCN(c2cccc(C(F)(F)F)c2)CC1` [ERI-UCB-a0b0dbcb-4], the IC50 under setting [1] was 4.72 µM.

For the compound `O=C(c1cc(=O)[nH]c2ccccc12)N1CCN(Cc2cccc(Cl)c2)CC1` [ERI-UCB-a0b0dbcb-12], the IC50 under setting [1] was 4.57 µM.

On to `O=C(c1cc(=O)[nH]c2ccccc12)N1CCN(Cc2cccc(C(F)(F)F)c2)CC1` [ERI-UCB-a0b0dbcb-13], for which, under setting [1], the IC50 was 34.2 µM.

Turning to `O=C(Cc1cncc2ccccc12)Nc1cc(Cl)cc(OC2CCC(=O)N2)c1` (stereo not shown) [ERI-UCB-ce40166b-6], under setting [1], the IC50 is 28.9 µM.

In the case of `O=C(Nc1cncc2ccccc12)C1COc2c(Cl)cccc21` (stereo not shown) [FRA-DIA-c7e803f4-1], the IC50 under setting [1] is 5.06 µM.

Turning to `COc1ccc2c(NC(=O)C3CCOc4ccc(Cl)cc43)noc2c1` (stereo not shown) [JAG-UCB-52b62a6f-10], the IC50 under setting [1] is 57.5 µM.

Take `O=C(Nc1n[nH]c2ccnc(Br)c12)C1CCOc2ccc(Cl)cc21` (stereo not shown) [JAG-UCB-52b62a6f-15]: the IC50 under setting [1] is 86.8 µM.

`O=C(Nc1n[nH]c2ccncc12)C1CCOc2ccc(Cl)cc21` (stereo not shown) [JAG-UCB-52b62a6f-16]: under setting [1], the IC50 was 70.3 µM.

As to `O=C(Nc1cnccc1CO)C1COc2ccc(Cl)cc21` (stereo not shown) [JAG-UCB-a3ef7265-3, Mpro-x10338], the IC50 under setting [1] was 30.4 µM.

Take `O=C(Nc1cnccc1CO)[C@@H]1COc2ccc(Cl)cc21` [JAG-UCB-a3ef7265-3]: the IC50 under setting [1] is 30.4 µM.

On to `O=C(Cc1cccc(Cl)c1)Nc1nnn[nH]1` [JAN-GHE-5a013bed-11], for which the IC50 under setting [1] was 45.3 µM.

For `O=C(Cc1cncc2ccccc12)N1CCOc2ccc(Cl)cc21` [JOH-UNI-ea1df7a8-1], the IC50 under setting [1] is 4.85 µM.

As to `O=C(Nc1c[nH]c(=O)c2ccccc12)C1CCOc2ccc(Cl)cc21` (stereo not shown) [JOH-UNI-f51e3bbc-1], under setting [1], the IC50 was 91.6 µM.

Turning to `CC(C)Cn1cc(NC(=O)NCc2ccco2)c2ccccc2c1=O` [LON-WEI-4d77710c-44], the IC50 under setting [1] is 29.6 µM.

Regarding `COC(=O)c1c(C)nn(C(=O)c2cccs2)c1-c1snnc1C` [LON-WEI-4d77710c-66], the IC50 under setting [1] was 3.12 µM.

For the compound `O=C(Nc1ccc(Cl)cc1)[C@@H](c1ccccc1)N1Cc2ccccc2C1=O` [LON-WEI-b2874fec-16], the concentration for half-maximal inhibition (IC50) under setting [1] was 82.3 µM.

In the case of `O=C(NCc1cccs1)[C@@H](c1ccccc1)N1Cc2ccccc2C1=O` [LON-WEI-f8a636e2-1], under setting [1], the concentration for half-maximal inhibition (IC50) was 90.7 µM.

As to `COc1ccccc1OCCC(=O)Nc1cncc2ccccc12` [MAR-UCB-f313ec4d-3], the IC50 under setting [1] was 90.9 µM.

`CN(C)C(C(=O)Nc1cncc2ccccc12)c1ccc(Cl)c(Cl)c1` (stereo not shown) [MAT-POS-1f3f1a6f-2]: the IC50 under setting [1] was 4.27 µM.

For the compound `CC(=O)NC(C(=O)Nc1cncc2ccccc12)c1ccc(Cl)c(Cl)c1` (stereo not shown) [MAT-POS-1f3f1a6f-3], the IC50 under setting [1] was 4.05 µM.

On to `O=C(Nc1cncc2ccccc12)C(NCC1CC1)c1ccc(Cl)c(Cl)c1` (stereo not shown) [MAT-POS-1f3f1a6f-4], for which the IC50 under setting [1] was 1.75 µM.

In the case of `O=C(Cc1cc(Cl)cc(OC2CC(=O)N2)c1)Nc1cc(=O)[nH]c2ccccc12` (stereo not shown) [MAT-POS-3b92565d-6], under setting [1], the IC50 was 91.1 µM.

`CN(C)C(=O)CC1(C(=O)Nc2cncc3ccccc23)CCOc2ccc(Cl)cc21` (stereo not shown) [MAT-POS-5d65ec79-1]: the IC50 under setting [1] was 2.92 µM.

Consider `OC(Cc1cccc(Cl)c1)Cn1cncn1` (stereo not shown) [MAT-POS-6da3605a-2], for which the IC50 under setting [1] is 82.2 µM.

With `O=C(Nc1cncc2ccccc12)C1(CO)CCOc2ccc(Cl)cc21` (stereo not shown) [MAT-POS-9db1e783-2], the IC50 under setting [1] was 1.09 µM.

As to `O=C(Cc1cc(Cl)cc(OC2CCC(=O)N2)c1)Nc1cncc2ccccc12` (stereo not shown) [MAT-POS-9ff17035-1], under setting [1], the IC50 is 85.9 µM.

Turning to `O=C(Cc1cc(Cl)cc(Oc2cccc(=O)[nH]2)c1)Nc1cncc2ccccc12` [MAT-POS-9ff17035-2], the IC50 under setting [1] was 1.98 µM.

Turning to `O=C(Cc1cccc(Cl)c1)Nc1cncc2c1CCCN2` [MAT-POS-14ad9fe9-1], the IC50 under setting [1] is 5.66 µM.

On to `O=C(Cc1ccc(Cl)c(Cl)c1)Nc1cncc2ccccc12` [MAT-POS-23a8a11a-1, O=C(Cc1ccc(Cl)c(Cl)c1)Nc1cncc2ccccc12, reference compound], for which, under setting [1], the IC50 is 0.196 µM.

Turning to `CNC(=O)C1(CC(=O)Nc2cncc3ccccc23)CCOc2ccc(Cl)cc21` (stereo not shown) [MAT-POS-78e1d523-2], the IC50 under setting [1] was 30.7 µM.

With `CC(C(N)=O)c1cc(Cl)cc(CC(=O)Nc2cncc3ccccc23)c1` (stereo not shown) [MAT-POS-281d2ee9-1], the IC50 under setting [1] was 2.62 µM.

On to `O=C(Cc1cc(Cl)cc(-c2nnn[nH]2)c1)Nc1cncc2ccccc12` [MAT-POS-281d2ee9-3], for which, under setting [1], the IC50 is 21.4 µM.

Regarding `O=C1CC(C(=O)N2CCN(c3cccc(Cl)c3)CC2)c2ccccc2N1` (stereo not shown) [MAT-POS-450cb4f9-1], the IC50 under setting [1] was 20.9 µM.

Consider `Cc1cc(C)c(C)c(S(=O)(=O)N2CCN(C(=O)c3cc(=O)[nH]c4ccccc34)CC2)c1C` [MAT-POS-916a2c5a-3], for which the IC50 under setting [1] was 6.11 µM.

`O=C(c1cc(=O)[nH]c2ccccc12)N1CCN(c2ccccc2)CC1` [MAT-POS-916a2c5a-4, MAT-POS-916a2c5a-4, Mpro-x3303]: the IC50 under setting [1] was 19 µM.

Consider `O=C(c1cc(=O)[nH]c2ccccc12)N1CCN(c2ccccc2)CC1` [MAT-POS-916a2c5a-4], for which, under setting [1], the IC50 was 19 µM.

For the compound `Cc1ccncc1NC(=O)Cc1cc(Cl)cc(NC2CCC(F)(F)C2O)c1` (stereo not shown) [MAT-POS-044491d2-2], under setting [1], the IC50 was 24.4 µM.

In the case of `Cc1ccncc1NC(=O)Cc1cc(Cl)cc(NC2(C)CCC(F)(F)CC2)c1` [MAT-POS-044491d2-6], the IC50 under setting [1] is 30.1 µM.

In the case of `O=C1CC(Oc2cc(Cl)cc(N(CCC3CCCCC3)C(=O)Nc3cncc4ccccc34)c2)N1` (stereo not shown) [MAT-POS-53907a1c-3, O=C(Nc1cncc2ccccc12)N(CCC1CCCCC1)c1cc(Cl)cc(OC(C2)NC2=O)c1, reference compound], the IC50 under setting [1] is 0.84 µM.

Turning to `CNc1ccc(N(C(=O)Cn2nnc3ccccc32)c2cccc(Cl)c2)cc1` [MAT-POS-06036648-5], the IC50 under setting [1] is 7.95 µM.

On to `Cc1ccncc1NC(=O)[C@H]1CCOc2ccc(Cl)cc21` [MAT-POS-b3e365b9-3], for which the IC50 under setting [1] was 5.66 µM.

On to `CC(C)c1ccncc1NC(=O)Cc1cccc(Cl)c1` [MAT-POS-bb423b95-5], for which the IC50 under setting [1] was 22.9 µM.

Regarding `N#Cc1ncn(CC(=O)Nc2ccc(Br)cc2Cl)n1` [MAT-POS-e10a589d-4], the IC50 under setting [1] was 9.3 µM.

Consider `CCCCc1nc(-c2nccn2Cc2ccoc2)c[nH]1` [MAT-POS-ea426761-53], for which the IC50 under setting [1] was 14.3 µM.

Regarding `O=C1CC(C(=O)Nc2cncc3ccccc23)c2cc(Cl)cc(Cl)c2N1` (stereo not shown) [MAT-POS-f39f51fd-1], under setting [1], the half-maximal inhibitory concentration (IC50) is 2.74 µM.

Regarding `Cc1ccncc1NC(=O)Cc1cc(Cl)cc(-c2ccc(C3CC3(F)F)cc2)c1` (stereo not shown) [MAT-POS-f42f3716-1], the IC50 under setting [1] was 5.64 µM.

`CCc1cc(F)ccc1-c1cc(Cl)cc(CC(=O)Nc2cnccc2C)c1` [MAT-POS-f42f3716-4]: the IC50 under setting [1] is 28.8 µM.

For `Cc1ccncc1NC(=O)Cc1cc(Cl)cc(-c2ccc(C3(C)CCO3)cc2)c1` (stereo not shown) [MAT-POS-f42f3716-5], the half-maximal inhibitory concentration (IC50) under setting [1] was 12.1 µM.

As to `Cc1ccncc1NC(=O)Cc1cc(Cl)cc(-c2cnn(C)c2C(F)F)c1` [MAT-POS-f42f3716-7], the IC50 under setting [1] is 17.6 µM.

`CC(C)(C)c1ccc(N(C(=O)c2cn[nH]c2)C(C(=O)NCCc2cccc(F)c2)c2cccnc2)cc1` (stereo not shown) [MAT-POS-f2460aef-5]: under setting [1], the IC50 is 5.33 µM.

Consider `CN1C(=O)CC(O)(C(=O)Nc2cncc3ccccc23)c2cc(Cl)ccc21` (stereo not shown) [MAT-POS-f9802937-2], for which the IC50 under setting [1] is 20.7 µM.

Consider `CN(C)C(=O)C[C@]1(C(=O)Nc2cncc3ccccc23)CCOc2ccc(Cl)cc21` [MAT-POS-f9802937-3], for which the IC50 under setting [1] was 1.3 µM.
